Records with an inconclusive call do not appear.
Test system: BDF1 mice, M5076 sarcoma s.c., survival/tumor T/C
Assay: NCI In Vivo Anticancer Drug Screen. Data for tumor model Sarcoma M5076 (subcutaneous) in B6D2F1 (BDF1) mice
Protocol: The antitumor activity of compounds was measured in mice bearing transplantable tumors. Survival or tumor size were measured and the results are expressed as the measurement made in the treated group (T) divided by the measurement made in the vehicle treated control group (C). The tumor model used in this assay is Sarcoma M5076 (subcutaneous) in B6D2F1 (BDF1) mice

[1] = endpoint: median survival time, dose: 50.0 mg/kg/injection, schedule: Q01DX009 (ip), vehicle: saline with Tween-80, higher = longer survival
[2] = endpoint: median survival time, dose: 100.0 mg/kg/injection, schedule: Q01DX009 (ip), vehicle: saline with Tween-80, higher = longer survival
[3] = endpoint: median survival time, dose: 200.0 mg/kg/injection, schedule: Q01DX009 (ip), vehicle: saline with Tween-80, higher = longer survival
[4] = endpoint: median tumor weight (est.), dose: 50.0 mg/kg/injection, schedule: Q01DX009 (ip), vehicle: saline with Tween-80, higher = larger tumour
[5] = endpoint: median tumor weight (est.), dose: 200.0 mg/kg/injection, schedule: Q01DX009 (ip), vehicle: saline with Tween-80, higher = larger tumour
[6] = endpoint: median tumor weight (est.), dose: 100.0 mg/kg/injection, schedule: Q01DX009 (ip), vehicle: saline with Tween-80, higher = larger tumour

COc1cccc2c1C(=O)c1c(O)c3c(c(O)c1C2=O)C[C@@](O)(C(=O)CO)C[C@@H]3OC1CC(N)C(O)C(C)O1 (stereo not given in full)
T/C (endpoint: mean tumor weight, dose: 1.0 mg/kg/injection, schedule: Q02DX011 (ip), vehicle: saline, higher = larger tumour): 81 % of control
T/C (endpoint: mean tumor weight, dose: 2.0 mg/kg/injection, schedule: Q02DX011 (ip), vehicle: saline, higher = larger tumour): 39 % of control
T/C (endpoint: median survival time, dose: 0.25 mg/kg/injection, schedule: Q02DX009 (iv), vehicle: saline, higher = longer survival): 97 % of control
T/C (endpoint: median survival time, dose: 0.5 mg/kg/injection, schedule: Q02DX009 (iv), vehicle: saline, higher = longer survival): 94 % of control
T/C (endpoint: median survival time, dose: 0.5 mg/kg/injection, schedule: Q04DX009 (ip), vehicle: saline, higher = longer survival): 114 % of control
T/C (endpoint: median survival time, dose: 1.0 mg/kg/injection, schedule: Q02DX009 (iv), vehicle: saline, higher = longer survival): 100 % of control
T/C (endpoint: median survival time, dose: 1.0 mg/kg/injection, schedule: Q02DX011 (ip), vehicle: water, higher = longer survival): 100 % of control
T/C (endpoint: median survival time, dose: 1.0 mg/kg/injection, schedule: Q04DX009 (ip), vehicle: saline, higher = longer survival): 111 % of control
T/C (endpoint: median survival time, dose: 1.3 mg/kg/injection, schedule: Q04DX004 (iv), vehicle: saline, higher = longer survival): 100 % of control
T/C (endpoint: median survival time, dose: 2.0 mg/kg/injection, schedule: Q02DX009 (iv), vehicle: saline, higher = longer survival): 97 % of control
T/C (endpoint: median survival time, dose: 2.0 mg/kg/injection, schedule: Q02DX011 (ip), vehicle: water, higher = longer survival): 94 % of control
T/C (endpoint: median survival time, dose: 2.0 mg/kg/injection, schedule: Q04DX009 (ip), vehicle: saline, higher = longer survival): 111 % of control
T/C (endpoint: median survival time, dose: 2.16 mg/kg/injection, schedule: Q04DX004 (ip), vehicle: saline, higher = longer survival): 90 % of control
T/C (endpoint: median survival time, dose: 2.16 mg/kg/injection, schedule: Q04DX004 (iv), vehicle: saline, higher = longer survival): 112 % of control
T/C (endpoint: median survival time, dose: 3.0 mg/kg/injection, schedule: Q02DX011 (ip), vehicle: water, higher = longer survival): 96 % of control
T/C (endpoint: median survival time, dose: 3.0 mg/kg/injection, schedule: Q04DX003 (iv), vehicle: saline, higher = longer survival): 108 % of control
T/C (endpoint: median survival time, dose: 3.6 mg/kg/injection, schedule: Q04DX004 (ip), vehicle: saline, higher = longer survival): 103 % of control
T/C (endpoint: median survival time, dose: 3.6 mg/kg/injection, schedule: Q04DX004 (iv), vehicle: saline, higher = longer survival): 93 % of control
T/C (endpoint: median survival time, dose: 4.0 mg/kg/injection, schedule: Q02DX011 (ip), vehicle: water, higher = longer survival): 38 % of control
T/C (endpoint: median survival time, dose: 4.0 mg/kg/injection, schedule: Q04DX009 (ip), vehicle: saline, higher = longer survival): 108 % of control
T/C (endpoint: median survival time, dose: 4.5 mg/kg/injection, schedule: Q04DX003 (iv), vehicle: saline, higher = longer survival): 124 % of control
T/C (endpoint: median tumor weight (est.), dose: 1.0 mg/kg/injection, schedule: Q02DX011 (ip), vehicle: saline, higher = larger tumour): 76 % of control
T/C (endpoint: median tumor weight (est.), dose: 2.0 mg/kg/injection, schedule: Q02DX011 (ip), vehicle: saline, higher = larger tumour): 26 % of control

Nc1ccc(N2N=C(N3CCCC3)CC2=O)cc1
T/C [1]: 100 % of control
T/C [2]: 99 % of control
T/C [3]: 94 % of control
T/C [4]: 112 % of control
T/C [5]: 80 % of control

NC(=O)c1csc(C2OC(CO)C(O)C2O)n1 (stereo not given)
T/C (endpoint: median survival time, dose: 9.38 mg/kg/injection, schedule: Q01DX009 (ip), vehicle: saline, higher = longer survival): 103 % of control
T/C (endpoint: median survival time, dose: 18.8 mg/kg/injection, schedule: Q01DX009 (ip), vehicle: saline, higher = longer survival): 97 % of control
T/C (endpoint: median survival time, dose: 37.5 mg/kg/injection, schedule: Q01DX009 (ip), vehicle: saline, higher = longer survival): 93 % of control
T/C (endpoint: median survival time, dose: 75.0 mg/kg/injection, schedule: Q01DX009 (ip), vehicle: saline, higher = longer survival): 94 % of control
T/C (endpoint: median survival time, dose: 150.0 mg/kg/injection, schedule: Q01DX009 (ip), vehicle: saline, higher = longer survival): 97 % of control
T/C (endpoint: median survival time, dose: 300.0 mg/kg/injection, schedule: Q01DX009 (ip), vehicle: saline, higher = longer survival): 97 % of control
T/C (endpoint: median survival time, dose: 600.0 mg/kg/injection, schedule: Q01DX009 (ip), vehicle: saline, higher = longer survival): 101 % of control
T/C (endpoint: median tumor weight (est.), dose: 9.38 mg/kg/injection, schedule: Q01DX009 (ip), vehicle: saline, higher = larger tumour): 95 % of control
T/C (endpoint: median tumor weight (est.), dose: 18.8 mg/kg/injection, schedule: Q01DX009 (ip), vehicle: saline, higher = larger tumour): 95 % of control
T/C (endpoint: median tumor weight (est.), dose: 75.0 mg/kg/injection, schedule: Q01DX009 (ip), vehicle: saline, higher = larger tumour): 100 % of control
T/C (endpoint: median tumor weight (est.), dose: 150.0 mg/kg/injection, schedule: Q01DX009 (ip), vehicle: saline, higher = larger tumour): 104 % of control
T/C (endpoint: median tumor weight (est.), dose: 300.0 mg/kg/injection, schedule: Q01DX009 (ip), vehicle: saline, higher = larger tumour): 91 % of control

COC(=O)C(Cc1ccccc1)NS(=O)(=O)c1ccc(C)cc1 (stereo not given)
T/C [1]: 98 % of control
T/C [2]: 106 % of control
T/C [3]: 97 % of control
T/C [6]: 118 % of control

CCc1ccc(NC(=O)/C=C\C(=O)O)cc1
T/C [1]: 86 % of control
T/C [2]: 105 % of control
T/C [3]: 91 % of control
T/C [4]: 112 % of control
T/C [6]: 85 % of control
T/C [5]: 106 % of control

From PubChem BioAssay AID288 (DTP/NCI, 2004)
